According to patent publication US20250369975A1, “METHOD FOR DETECTING TRANSTHYRETIN TETRAMER, AND METHOD FOR EVALUATING STABILITY” (SYSMEX CORPORATION, priority 2024, published 2025):
Like-named read-outs stand apart in the source and are kept apart here.

Legend:
Format in all cases: binding
[1] = molecular target: T1, TTR tetramer in blood sample (serum, plasma) (Homo sapiens, UniProt P02766); test: Example 2: same format, serially diluted serum and plasma samples; settings: probe immobilized on solid phase
T1 construct: serially diluting commercially available serum (ProMedex Corporation, 12011378); tissue ProMedex Corporation (serum); host or cells: serum and plasma mix
Protocol: (§1) (1.2) Blood sample Six serum samples were prepared by serially diluting commercially available serum (ProMedex Corporation, 12011378) with 1% BSA/0.5% casein/PBS. Also six plasma samples were prepared by serially diluting a commercially available plasma mix with 1% BSA/0.5% casein/PBS.
The sample containing the recombinant TTR and the blood sample were the same as in Example 1. Probes C5 and C6 were diluted with 1% BSA/0.5% casein/PBS, to prepare a probe solution (0.3 μM). An ALP-labeled polyclonal anti-TTR antibody is used as the labeled antibody capable of binding to the TTR monomer. The labeled antibody was prepared by labeling a polyclonal rabbit anti-human prealbumin antibody (Agilent, A0002) with ALP by a usual method. […]
To each well of the plate, 300 μL of a blocking solution (1% BSA/0.5% casein/PBS) was added, followed by incubation for 1 hour at room temperature. […] 100 μL of a substrate solution of ALP was added to each well, and after 15 minutes, a chemiluminescence signal was measured with a plate reader. The samples were measured twice, and an average value of the two measured values was acquired. Results of measurement of the sample that contains the recombinant TTR are illustrated in FIGS. 16A and B. Measured results of the blood samples are illustrated in FIGS. 17A to D.

[2] = test system: TTR tetramer (recombinant human transthyretin WT, T119M, V30M); settings: probe solution 10 μM; recombinant TTR 100 ng/mL; FIG. 14A-D
[3] = test system: TTR tetramer (recombinant human transthyretin WT, T119M, V30M); settings: probe solution 0.3 μM immobilized on solid phase; recombinant TTR 100 ng/mL; FIG. 16A-B
[4] = test system: TTR tetramer (recombinant human transthyretin WT, T119M, V30M); settings: probe solution 0.2 μM mixed with sample; FIG. 18A-B
[5] = molecular target: T2, TTR tetramer (wild-type recombinant human transthyretin) (Homo sapiens, UniProt P02766); test: Example 5: HISCL-5000 automated immunoassay, tagged probe, streptavidin magnetic particle, ALP-labeled monoclonal anti-TTR antibody; settings: R1 reagent 0.3 μM probe; WT TTR 10 and 100 μg/mL; FIG. 21B
T2 construct: purchased AlexoTech T-500-10
Protocol: A sample containing wild-type (WT) recombinant TTR at respective concentrations of 10 μg/mL and 100 μg/mL was prepared by diluting transthyretin (wild-type) human, recombinant (AlexoTech, T-500-10) with 1% BSA/0.5% casein/PBS.
(2.1) R1 reagent As R1 buffer, a […] buffer (pH 8.0±0.05) containing 1% BSA, 0.15 g/L mouse IgG, 0.1% sodium azide, […], 0.1% Tween® 20 and 20 mg/mL alkaline phosphatase (AP) mutein was prepared. Probe C5 was diluted with R1 buffer, to prepare R1 reagent (0.1 μM) containing probe C5. Probe C6 was also diluted with R1 buffer, to prepare R1 reagent (0.3 μM) that contains probe C6.
As R3 buffer, a 0.1 mol/L HEPES buffer (pH 8.0±0.05) containing 1% BSA, 0.15 g/L murine IgG, 0.1% sodium azide, 0.15 mol/L NaCl, 0.1% Tween20.20 mg/mL AP mutein, 1.0 mmol/L MgCl, and 0.1 mmol/L ZnCl of 2 was prepared. An ALP-labeled monoclonal anti-TTR antibody was used as the labeled antibody capable of binding to the TTR monomer. […]
50 μL of each R1 reagent was added to the cuvette, to which 30 μL of the sample was then added, followed by incubation for 2.5 minutes. […] Five minutes later, the chemiluminescence signal was measured with HISCL-5000. As a control (blank), the sample was similarly measured with use of 30 μL of 1% BSA/0.5% casein/PBS instead of the sample. […]

[6] = molecular target: T3, TTR tetramer in plasma sample (Homo sapiens, UniProt P02766); test: Example 3: same format, serially diluted plasma samples; settings: probe solution 0.2 μM, FIG. 19B
T3 construct: serially diluting commercially available serum (ProMedex Corporation, 12011378); tissue ProMedex Corporation (serum); host or cells: serum and plasma mix
Protocol: as §1
The sample containing the recombinant TTR and the plasma sample were the same as in Example 1. Probes C5 and C6 were diluted with 1% BSA/0.5% casein/PBS, to prepare a probe solution (0.2 μM). The same ALP-labeled polyclonal anti-TTR antibody as in Example 2 was diluted 3200 times with 1% BSA/0.1% goat IgG/0.01% mouse IgG/0.005% scavenger ALP/PBS, to prepare a labeled antibody solution. The substrate solution and solid phase of ALP were the same as those in Example 2.
150 μL of each sample and 150 μL of the probe solution were mixed, and incubated at room temperature for 1 hour. As a control (blank), instead of the sample, 150 μL of 1% BSA/0.5% casein/PBS and 150 μL of the probe solution were mixed, and incubated in the same manner. […] 100 μL of a substrate solution of ALP was added to each well, and after 15 minutes, a chemiluminescence signal was measured with a plate reader. The samples were measured twice, and an average value of the two measured values was acquired. […]

For `O=C(CCCCC1SCC2NC(=O)NC21)NCCOCCOCCOCCOCCOCCOCCOCCOCCOCCOCCOCCOCCC(=O)Nc1ccc(/C=C/c2cc(Br)c(O)c(Br)c2)cc1` (stereo not shown) [Probe C6, Biotin-PEG12-Stilbene Derivative], the “signal measured value of the plasma sample versus dilution factor” value ([1]; serially diluted plasma, FIG. 17D) was “similarly increased according to the dilution factor”, the “signal measured value of the serum sample versus dilution factor” value ([1]; serially diluted serum, FIG. 17C) was “increased according to the dilution factor” and the “chemiluminescence signal measured values of WT, T119M and V30M samples versus blank” value [2] was “results similar to those of FIG. 14 A”. The “chemiluminescence signal measured values of WT, T119M and V30M samples versus blank” value [3] was “a result similar to that of FIG. 16 A”, the “chemiluminescence signal measured values of WT, T119M and V30M samples versus blank” value [4] was “a result similar to that of FIG. 18 A” and the “signal measured value versus level of recombinant TTR in the sample” value [5] was “increased corresponding to the level of the recombinant TTR in the sample”. The “signal measured value of the plasma sample versus dilution factor” value [6] was “increased according to the dilution factor”.
